What was measured:
[1] = tested on: vascular endothelial growth factor (VEGF); assay: VEGF expression in conditioned media, QUANTIKINE immunoassay; format: cell-based, human; settings: HFF, 293A and Hep3B cells
Method: When cell layers reached confluence, the media was replaced with OPTI-MEM media (Invitrogen Life Technologies, Carlsbad Calif.) and cell layers were incubated for approximately 24 hours in 20% O2, 5% CO2 at 37° C. Compound of the invention (one of compounds A to O) or DMSO (0.5 to 1%) was then added to existing medium, and incubation was continued overnight.
Conditioned media collected from cell cultures grown as in Example 1 was analyzed for vascular endothelial growth factor (VEGF) expression using a QUANTIKINE immunoassay (R&D Systems) according to the manufacturer's instructions. […] Values on the y-axis represent fold-induction relative to control and are reported on a log2 scale, such that a value of 1 represents 2-fold induction.

[2] = tested on: HIF-regulated genes; assay: Expression of HIF-regulated genes in vivo, Murine genome U74AV2 array; parameters: species or system mouse; settings: 100 mg/kg oral gavage
Method: Twenty four Swiss Webster male mice (30-32 g) were obtained from Simonsen, Inc., and treated by oral gavage with a 4 ml/kg volume of either 0.5% CMC (Sigma-Aldrich) (0 mg/kg/day) or […] Compound A (25 mg/ml in 0.5% CMC) (100 mg/kg). At 4, 8, 16, 24, 48, or 72 hours after the final dose, animals were anesthetized with isoflurane and a blood sample was collected from the abdominal vein. The blood sample was collected into a MICROTAINER serum separator tube (Becton-Dickinson, Franklin Lakes N.J.), incubated at room temperature for 30 minutes, centrifuged at 8,000 rpm at 4° C. for 10 min, and cell pellet was resuspended in […] solution (Ambion) and stored at −80° C. The mice were then sacrificed and tissue samples of kidney, liver, brain, lung, and heart were isolated and stored in […] solution (Ambion) at −80° C.
RNA isolation was carried out using the following protocol. […] The RNA was eluted into 80 μL of water and quantitated with RIBOGREEN reagent (Molecular Probes, Eugene Oreg.). […] The absorbance at 260 and 280 nm was measured to determine RNA purity and concentration.
Alternatively, tissue samples were diced and homogenized in TRIZOL reagent (Invitrogen Life Technologies, Carlsbad Calif.) using a rotor-stator POLYTRON homogenizer (Kinematica). […] The absorbance at 260 and 280 nm was measured to determine RNA purity and concentration. […]

[3] = tested on: Wistar rats, acute myocardial infarction (AMI); assay: Cardiac ischemia Experiment I, 10-week study after acute myocardial infarction; format: in vivo, rat
Method: Alternatively, one hundred forty adult male Wistar rats (200-250 g) were anaesthetized and subjected to left coronary artery occlusion to produce AMI. Forty-eight hours after surgery, 2DE images were obtained and animals with a significant area of infarction were randomized to treatment with compound A (n=34) or vehicle (n=34).
Animals were treated by gavage 2 times per day for the duration of the experiment with compound A at 50 mg/kg or with vehicle alone. Serum level of drug was determined periodically to establish that treated animals received sufficient and consistent amount of drug and that the measured levels were sufficient to inhibit prolyl 4-hydroxylase.
Digital mid-papillary muscle and apical four chamber 2DE images were obtained biweekly on half of the animals in each group until week 8. Two observers blinded to treatment did measurements off-line. For the measurements, the digital images were slowed and frozen at end systole and end diastole. Two to three endocardial surfaces were traced in both the short axis and four chamber views and averaged. The left ventricular area in systole and diastole, ejection fraction, fractional area change, wall thickness, mitral peak E wave velocity, aortic peak velocity, and infarct size were measured.
After 10 weeks of treatment, in vivo hemodynamic measurements were determined and hearts were excised and weighed as described below.
To collect in vivo hemodynamic measurements, animals were anaesthetized and the right carotid artery was dissected free from surrounding tissues and canulated with an SPR-671 ultra-miniature pressure transducer (Millar Instruments, Inc., Houston Tex.). The catheter was then advanced into the left ventricle. After steady state was established, baseline heart rate (HR), developed pressure (DP), contractile index (CI), left ventricle systolic pressure (SBP) and end diastolic pressure (LVEDP), and maximal rate of pressure rise and fall (+dP/dt and −dP/dt, respectively) were recorded.
Following hemodynamic measurement, hearts were excised and weighed. Pieces of scarred myocardium, and right ventricle and left ventricle myocardium distant from the site of infarct were dissected out and weighed. Hydroxyproline and proline were determined by the method of Palmerini et al. (1985, J Chromatogr 339:285-92) except that L-azetidine-2-carboxylic acid (Sigma-Aldrich) was substituted for 3,4-dehydroproline as the internal standard.

SMILES: O=C(O)c1c[nH]c2c(ccc3cccnc32)c1=O [Compound A, 4-oxo-1,4-dihydro-[1,10]phenanthroline-3-carboxylic acid]
- VEGF expression in conditioned media (FIG. 4A) [1]: increase in VEGF expression
- expression of genes encoding glycolytic enzymes (FIG. 7A) ([2]; mouse kidney): increased
- expression of genes encoding angiogenic proteins (FIG. 5A) ([2]; mouse lung): increased
- deaths immediately following insult to the heart (FIG. 8) ([3]; 50 mg/kg gavage 2 times per day, n=34): no deaths
- percent of treated group still alive ([3]; 8 weeks after myocardial infarction, 50 mg/kg gavage 2 times per day): over 90%
- +dP/dt ([3]; 10 weeks post-MI): 6701 ± 331 mm Hg/sec
- Developed pressure ([3]; 10 weeks post-MI): 97 ± 3 mm Hg
- Hydroxyproline/proline in infarct scar ([3]; 10 weeks post-MI): 0.471 ± 0.024
- Hydroxyproline/proline in non-infarct left ventricular myocardium ([3]; 10 weeks post-MI): 0.099 ± 0.025
- Hydroxyproline/proline in non-infarct right ventricular myocardium ([3]; 10 weeks post-MI): 0.152 ± 0.044
- Systolic BP ([3]; 10 weeks post-MI): 106 ± 4 mm Hg
- −dP/dt ([3]; 10 weeks post-MI): 6395 ± 373 mm Hg/sec
- left ventricular ejection fraction (LVEF) ([3]; at randomization): 33%
- relative reduction in mortality ([3]; treated relative to untreated group, weeks 2 through 8): 77%
- left ventricular ejection fraction (LVEF) relative to untreated controls (FIG. 10A) ([3]; weeks 2 through 8): statistically significant improvement

From patent US8466172B2, “Stabilization of hypoxia inducible factor (HIF) alpha” (FibroGen, Inc., priority 2001, dated 2013)
